Reference: patent US8686044B2, “Amide derivative, pest control agent containing the amide derivative, and use of the amide derivative” (Mitsui Chemicals Agro, Inc., priority 2008, dated 2014)
Read-outs that look alike come from different tables or passages of the source.

How the values were obtained:
Assay type in all cases: in vivo
Rhipicephalus sanguineus = assay: Insecticidal test for Rhipicephalus sanguineus (treated glass petri dish, Table A6); details: adults of Rhipicephalus sanguineus, 18 hour exposure, examined after 48 hours, in single
Procedure: Insecticidal Test for Rhipicephalus sanguineus
0.5 ml of a solution of acetone, the active ingredient, prepared to the prescribed dose was added dropwise into a glass petri dish with a diameter of 10 cm, and the acetone was evaporated at room temperature. About 10 adults of Rhipicephalus sanguineus per dish were added, and the dish was covered by another glass petri dish that was treated with the active ingredient in the same manner described above. After 18 hour exposure to the test substance, the adults were transferred into a glass petri dish that was not treated with the active ingredient. After 48 hours of the exposure, the conditions of the adults were examined and classified into “alive” and “dead (including a moribund condition)” to determine the death rate (in single).
As the comparative compounds, said Compounds (B), (C), and (D), and the following Compound (F) disclosed in WO2009/080203, and fipronil were used.

Ctenocephalides Felis [1] = assay: Insecticidal test for Ctenocephalides felis, Test Example 3 (dry film in glass tube, 0.96 ml, Table A5); details: adults of Ctenocephalides felis, after 24 hours of exposure, in triplicate
Procedure: Insecticidal Test for Ctenocephalides felis
0.96 ml of a solution of acetone, the active ingredient, prepared to the prescribed concentration was added dropwise to a glass tube with a flat bottom (internal diameter: 3.6 cm, height: 12 cm), and the solvent was evaporated at room temperature to form a dry film of the agent on the bottom surface. About 10 adults of Ctenocephalides felis per glass tube were added, and they were contact-exposed to the test compound. After 24 hours of the exposure, the conditions of the adults were examined and classified into “alive” and “dead (including a moribund condition)” to determine the death rate was determined (in triplicate).
As the comparative compounds, the following Compounds (D) and (E) disclosed in WO2009/080203, and fipronil were used.

Musca domestica = assay: Pesticidal test against Musca domestica (petri dish dry film); details: 24 h, concentration 100 ppm, female adults, examined after 1 day, 25° C., read-out: pesticidal rate
Summary of the method: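 Dry film from 1 ml acetone solution of compound at a predetermined concentration, air-dried in a 9 cm petri dish; female adult flies released and dish capped. Held at 25° C; living and dead counted after 1 day. Five insects per group, two replicates.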

Coptotermes formosanus = assay: Pesticidal test against Coptotermes formosanus (treated filter paper); details: 120 h, concentration 30 ppm, examined after 5 days of treatment, 28° C., read-out: pesticidal rate
Procedure: Pesticidal Test against Coptotermes formosanus
20 μl of an acetone solution in which a test compound had been prepared at a predetermined concentration was added dropwise to the filter paper having a diameter of […] included in a polypropylene cup, and air-dried, and then 20 μl of water was added thereto. Coptotermes formosanus was released and the cup was capped. They were left to stand in a thermostatic chamber at 28° C., and the numbers of the living pests and the dead pests were examined after 5 days of treatment. The test was carried out with ten larvae per group in two replicates.

Spodoptera litura = assay: Pesticidal test against Spodoptera litura (cabbage leaf dip); details: foliar, 144 h, concentration 1 ppm, 2-stage larvae, examined after 6 days, 25° C., read-out: pesticidal rate
Summary of the method: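 Cabbage leaf pieces dipped 30 seconds in compound solution at a predetermined concentration and air-dried, then offered to second-stage larvae, five per group in two replicates. Held at 25° C. Living and dead larvae counted after 6 days.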

Laodelphax striatellus = assay: Pesticidal test against Laodelphax striatellus (rice seedling spray); details: 144 h, concentration 100 ppm, 3-stage larvae, examined after 6 days, 25° C., read-out: pesticidal rate
Summary of the method: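 Rice seedlings sprayed with 2.5 ml acetone solution of compound at a predetermined concentration, air-dried, then infested with third-stage Laodelphax striatellus larvae in capped water-containing tubes at 25 °C. Living and dead insects counted after 6 days; ten larvae per group, two replicates.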

Blattella germanica = assay: Pesticidal test against Blattella germanica (petri dish dry film); details: 24 h, concentration 100 ppm, female adults, examined after 1 day, 25° C., read-out: pesticidal rate
Summary of the method: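 Acetone solution of test compound at a predetermined concentration dried as a film in a 9 cm petri dish; female adult cockroaches released onto it and kept at 25° C. Living and dead counted after 1 day; five insects per group, two replicates.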

Plutella xylostella = assay: Pesticidal test against Plutella xylostella (cabbage leaf dip); details: foliar, 144 h, concentration 1 ppm, 2-stage larvae, examined after 6 days, 25° C., read-out: pesticidal rate
Summary of the method: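 Cabbage leaf pieces dipped 30 s in test solution at a predetermined concentration, air-dried, then offered to 2nd-instar larvae, five per group in duplicate. Held at 25° C; living and dead larvae counted after 6 days.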

Ctenocephalides Felis [2] = assay: Insecticidal test for Ctenocephalides felis, Test Example 1 (dry film in glass tube, 0.5 ml, Table A4); details: Ctenocephalides felis, read-out: death rate; for pest or weed control at 1 µg/mL: concentration 1.0 μg/ml
Procedure: Insecticidal Test for Ctenocephalides Felis
0.5 ml of a solution of acetone, the active ingredient, prepared to the prescribed concentration was added dropwise to a glass tube with a flat bottom (internal diameter: 2.6 cm, bottom area: 5.3 cm^2, height: 12 cm), and the solvent was evaporated at room temperature to form a dry film of the agent on the bottom surface. About 10 adults of Ctenocephalides Felis per glass tube were added, and the adults were contact-exposed to the test compound. After 24 hours of the exposure, the conditions of the adults were examined and classified into “alive” and “dead (including a moribund condition)” to determine the death rate (in triplicate).
As the comparative compounds, the following Compounds (A), (B), and (C) disclosed in WO2009/080203, and fipronil were used.

Choristoneura magnanima = assay: Pesticidal test against Choristoneura magnanima (artificial feed dip); details: 144 h, 2-stage larvae, examined after 6 days, 25° C., read-out: pesticidal rate; for pest or weed control at 1 ppm: concentration 1 ppm
Summary of the method: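 Thin artificial feed slices dipped 30 s in compound solution at a set concentration, air-dried, then offered to 2nd-stage larvae held at 25° C. Living and dead larvae counted after 6 days; five larvae per group, two replicates.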

Adoxophyes honmai = assay: Pesticidal test against Adoxophyes honmai (artificial feed dip); details: 144 h, 2-stage larvae, examined after 6 days, 25° C., read-out: pesticidal rate; for pest or weed control at 10 ppm: concentration 10 ppm; for pest or weed control at 1 ppm: concentration 1 ppm
Summary of the method: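 Thin artificial feed slices dipped 30 s in test solution at a predetermined concentration, air-dried, then offered to 2nd-stage larvae. Kept at 25° C; live and dead larvae counted after 6 days. Five larvae per group, two replicates.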

Helicoverpa armigera = assay: Pesticidal test against Helicoverpa armigera (cabbage leaf disk dip); details: foliar, 72 h, concentration 1 ppm, 2-stage larvae, examined after 3 days, 25° C., read-out: pesticidal rate
Summary of the method: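 Cabbage leaf disks were dipped for 30 s in test solution at a set concentration and air-dried. Second-instar larvae were placed one per hole and held at 25 °C, with live and dead counts taken after 3 days. Five larvae per group were tested in two replicates.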

[3] = adults, after 24 hours of the exposure, in triplicate
[4] = concentration 0.1 μg/ml, adults, after 24 hours of the exposure, in triplicate

Compound | death rate (Rhipicephalus sanguineus; 0.673 mg/m^2) [%] | pest or weed control at 100 ppm (Musca domestica) [%] | pest or weed control at 30 ppm (Coptotermes formosanus) [%] | pest or weed control at 1 ppm (Spodoptera litura) [%] | pest or weed control at 100 ppm (Laodelphax striatellus) [%] | pest or weed control at 100 ppm (Blattella germanica) [%] | pest or weed control at 1 ppm (Plutella xylostella) [%] | pest or weed control at 1 ppm (Choristoneura magnanima) [%] | pest or weed control at 1 ppm (Helicoverpa armigera) [%] | pest or weed control at 1 ppm (Adoxophyes honmai) [%] | also measured
Cc1cc(C(F)(C(F)(F)F)C(F)(F)F)cc(C)c1NC(=O)c1cccc(NC(=O)c2cccnc2Cl)c1F [compound (D)] | 0.0 | – | – | – | – | – | – | – | – | – | death rate (Rhipicephalus sanguineus; 2.69 mg/m^2): 10.0%; death rate (Rhipicephalus sanguineus; 10.8 mg/m^2): 50.0%; death rate (Ctenocephalides Felis [1]; 0.3 μg/ml): 22.0%; death rate (Ctenocephalides Felis [1]; 1 μg/ml): 61.4%
CN(C(=O)c1ccccc1)c1cccc(C(=O)Nc2c(Br)cc(C(F)(C(F)(F)F)C(F)(F)F)cc2C(F)(F)F)c1 [7-268] | – | ≥ 70 | ≥ 70 | ≥ 70 | ≥ 70 | ≥ 70 | ≥ 70 | – | – | – | –
Cc1cc(C(F)(C(F)(F)F)C(F)(F)F)cc(C)c1NC(=O)c1cccc(NC(=O)c2cccnc2F)c1 [compound (A), reference compound] | – | – | – | – | – | – | – | – | – | – | pest or weed control at 1 µg/mL (Ctenocephalides Felis [2]; [3]): 0%
CN(C(=O)c1ccc(F)cc1)c1cccc(C(=O)Nc2c(Br)cc(C(F)(C(F)(F)F)C(F)(F)F)cc2C(F)(F)F)c1F [7-1577] | – | ≥ 70 | ≥ 70 | ≥ 70 | ≥ 70 | ≥ 70 | ≥ 70 | ≥ 70 | ≥ 70 | – | pest or weed control at 10 ppm (Adoxophyes honmai): ≥ 70%
CN(C(=O)c1ccccc1)c1cccc(C(=O)Nc2c(I)cc(C(F)(C(F)(F)F)C(F)(F)F)cc2C(F)(F)F)c1 [7-424] | – | ≥ 70 | ≥ 70 | ≥ 70 | ≥ 70 | ≥ 70 | ≥ 70 | – | ≥ 70 | – | pest or weed control at 10 ppm (Choristoneura magnanima; concentration 10 ppm): ≥ 70%; pest or weed control at 10 ppm (Adoxophyes honmai): ≥ 70%
N#Cc1nn(-c2c(Cl)cc(C(F)(F)F)cc2Cl)c(N)c1[S+]([O-])C(F)(F)F (centres unmarked) [fipronil] | 100.0 | – | – | – | – | – | – | – | – | – | pest or weed control at 0.1 µg/mL (Ctenocephalides Felis [2]; 24 h): 92.1%; death rate (Rhipicephalus sanguineus; 0.0431 mg/m^2): 0.0%; death rate (Rhipicephalus sanguineus; 0.172 mg/m^2): 45.5%; death rate (Ctenocephalides Felis [1]; 0.03 μg/ml): 70.0%; death rate (Ctenocephalides Felis [1]; 0.1 μg/ml): 100.0%
O=C(Nc1cccc(C(=O)Nc2c(I)cc(C(F)(C(F)(F)F)C(F)(F)F)cc2C(F)(F)F)c1F)c1ccc(F)cc1 [6-1733, 2-fluoro-3-(4-fluorobenzamide)-N-(2-iodo-4-(heptafluoropropan-2-yl)-6-(trifluoromethyl)phenyl)benzamide] | – | ≥ 70 | – | ≥ 70 | ≥ 70 | ≥ 70 | ≥ 70 | ≥ 70 | ≥ 70 | ≥ 70 | pest or weed control at 0.1 µg/mL (Ctenocephalides Felis [2]; [4]): 70%
O=C(Nc1cccc(C(=O)Nc2c(I)cc(C(F)(C(F)(F)F)C(F)(F)F)cc2I)c1)c1ccccc1 [compound (B)] | 0.0 | – | – | – | – | – | – | – | – | – | pest or weed control at 1 µg/mL (Ctenocephalides Felis [2]; [3]): 3.2%; death rate (Rhipicephalus sanguineus; 2.69 mg/m^2): 20.0%; death rate (Rhipicephalus sanguineus; 10.8 mg/m^2): 50.0%
CCc1cc(C(F)(C(F)(F)F)C(F)(F)F)cc(C)c1NC(=O)c1cccc(NC(=O)c2ccccc2Cl)c1F [compound (E)] | – | – | – | – | – | – | – | – | – | – | death rate (Ctenocephalides Felis [1]; 1 μg/ml): 0.0%
O=C(Nc1cccc(C(=O)Nc2c(I)cc(C(F)(F)F)cc2C(F)(F)F)c1)c1ccccc1 [compound (C)] | 0.0 | – | – | – | – | – | – | – | – | – | pest or weed control at 1 µg/mL (Ctenocephalides Felis [2]; [3]): 0%; death rate (Rhipicephalus sanguineus; 2.69 mg/m^2): 11.1%; death rate (Rhipicephalus sanguineus; 10.8 mg/m^2): 10.0%
CN(C(=O)c1ccccc1)c1cccc(C(=O)Nc2c(I)cc(C(F)(C(F)(F)F)C(F)(F)F)cc2C(F)(F)F)c1F [7-1730] | – | ≥ 70 | ≥ 70 | ≥ 70 | ≥ 70 | – | ≥ 70 | ≥ 70 | ≥ 70 | ≥ 70 | –
CN(C(=O)c1cccc(F)c1)c1cccc(C(=O)Nc2c(I)cc(C(F)(C(F)(F)F)C(F)(F)F)cc2C(F)(F)F)c1F [7-1732, 2-fluoro-3-(3-fluoro-N-methylbenzamide)-N-(2-iodo-4-(heptafluoropropan-2-yl)-6-(trifluoromethyl)phenyl)benzamide] | – | ≥ 70 | ≥ 70 | ≥ 70 | ≥ 70 | ≥ 70 | ≥ 70 | ≥ 70 | ≥ 70 | ≥ 70 | pest or weed control at 0.1 µg/mL (Ctenocephalides Felis [2]; [4]): 76.7%
O=C(Nc1cccc(C(=O)Nc2c(Br)cc(C(F)(C(F)(F)F)C(F)(F)C(F)(F)F)cc2C(F)(F)F)c1F)c1ccccc1 (centres unmarked) [6-1652] | – | ≥ 70 | ≥ 70 | ≥ 70 | ≥ 70 | – | ≥ 70 | ≥ 70 | ≥ 70 | ≥ 70 | –
